Results on 14 molecules are retold here after ChEMBL document CHEMBL4145629, “Synthesis of Thymoquinone-Artemisinin Hybrids: New Potent Antileukemia, Antiviral, and Antimalarial Agents” (ACS Med Chem Lett, 2018).

One data set concerns CCRF-CEM. Nature of the data set: Cytotoxicity against human CCRF-CEM cells assessed as reduction in cell viability after 72 hrs by resazurin dye based assay. Format: functional. A general note: The colour change of resazurin is a common sign of viable cells or microbes.
The test system of the next data set is ADR5000 cell line. Nature of the data set: Cytotoxicity against human CEM/ADR5000 cells overexpressing P-gp assessed as reduction in cell viability after 72 hrs by resazurin dye based assay. The data set is classed as functional. The note with it: ADR5000, 72 h.
In the next data set the test system is Plasmodium falciparum. The data set is described as follows: Antiplasmodial activity against Plasmodium falciparum 3D7 ring stage parasites infected in human erythrocytes after 72 hrs by SYBR Green 1 dye based fluorescence assay. The data set is classed as functional, organism-based. To be noted: 3D7, 72 h.
The test system of data set [1] is Human betaherpesvirus 5. Nature of the data set: Potency index, ratio of ganciclovir EC50 to compound EC50 for recombinant HCMV AD169 expressing GFP infected in human foreskin fibroblast. Format: functional.
Data set [2] has as its system Human betaherpesvirus 5. Nature of the data set: Potency index, ratio of artesunic acid EC50 to compound EC50 for recombinant HCMV AD169 expressing GFP infected in human foreskin fibroblast. The data set is classed as functional.
A further data set deals with HFF. Nature of the data set: Cytotoxicity against human HFF cells at 1 uM. The data set is classed as cell-based.

One may read the EC50 as the concentration that produces a half-maximal response. In the case of `CC1=C(CCCOC(=O)CC(=O)OCCOC(=O)CCC(=O)O[C@@H]2O[C@@H]3O[C@@]4(C)CC[C@H]5[C@H](C)CC[C@@H]([C@H]2C)[C@@]35OO4)C(=O)C(C(C)C)=CC1=O`, the EC50 with CCRF-CEM was found to be 80 nM; in the data set on ADR5000 cell line, 8200 nM; with Plasmodium falciparum it was 4.4 nM.

In the data set on Plasmodium falciparum, `CC1=CC(=O)C(C(C)C)=CC1=O` [THYMOQUINONE] came in with an EC50 of more than 80000 nM.

On to `CC1=C(CCCOC(=O)CCC(=O)O[C@@H]2O[C@@H]3O[C@@]4(C)CC[C@H]5[C@H](C)CC[C@@H]([C@H]2C)[C@@]35OO4)C(=O)C(C(C)C)=CC1=O`, for which the EC50 with CCRF-CEM is 500 nM; with ADR5000 cell line, 1300 nM; in the data set on Plasmodium falciparum, 6.9 nM.

In the case of `CC1=C(CCCCOC(=O)C[C@H]2O[C@@H]3O[C@@]4(C)CC[C@H]5[C@H](C)CC[C@@H]([C@H]2C)[C@@]35OO4)C(=O)C(C(C)C)=CC1=O`, in the data set with Plasmodium falciparum, the response was half-maximal at 17.5 nM (EC50).

Consider `CC1=C(CCCOC(=O)CCC(=O)O[C@@H]2O[C@@H]3O[C@@]4(C)CC[C@H]5[C@H](C)CC[C@@H]([C@H]2C)[C@@]35OO4)C(=O)C(C(C)C)=C(CCCOC(=O)CCC(=O)O[C@@H]2O[C@@H]3O[C@@]4(C)CC[C@H]5[C@H](C)CC[C@@H]([C@H]2C)[C@@]35OO4)C1=O`, for which the EC50 in the data set on CCRF-CEM is 200 nM; with ADR5000 cell line it was 200 nM; with Plasmodium falciparum, 4.3 nM.

Take `C[C@H]1[C@H](OC(=O)CCC(=O)O)O[C@@H]2O[C@@]3(C)CC[C@H]4[C@H](C)CC[C@@H]1[C@@]24OO3` [ARTESUNATE]: the EC50 with CCRF-CEM is 400 nM; in the data set with ADR5000 cell line, 100 nM; in the data set with Plasmodium falciparum, 8.2 nM.

For the molecule `CC1=C(CCCOC2O[C@@H]3O[C@@]4(C)CC[C@H]5[C@H](C)CC[C@@H]([C@H]2C)[C@@]35OO4)C(=O)C(C(C)C)=CC1=O` (stereo partly specified), the results for the EC50 in the data set on CCRF-CEM, in the data set with ADR5000 cell line and in the data set on Plasmodium falciparum were 200 nM, 200 nM and 5.9 nM, respectively. Also, the “Ratio EC50” value in the data set with Human betaherpesvirus 5 [1] turned out to be 5; in the data set with Human betaherpesvirus 5 [2], 8.

Regarding `CC1=C(CCCCOC(=O)CCC(=O)O[C@@H]2O[C@@H]3O[C@@]4(C)CC[C@H]5[C@H](C)CC[C@@H]([C@H]2C)[C@@]35OO4)C(=O)C(C(C)C)=C(CCCCOC(=O)CCC(=O)O[C@@H]2O[C@@H]3O[C@@]4(C)CC[C@H]5[C@H](C)CC[C@@H]([C@H]2C)[C@@]35OO4)C1=O`, the results for the EC50 with CCRF-CEM, in the data set on ADR5000 cell line and with Plasmodium falciparum were 6070 nM, 5660 nM and 12.1 nM, respectively. Also, in the data set on HFF, the Activity is reported as 50%.

In the data set on Plasmodium falciparum, `CC1=C(CCCOC(=O)C[C@H]2O[C@@H]3O[C@@]4(C)CC[C@H]5[C@H](C)CC[C@@H]([C@H]2C)[C@@]35OO4)C(=O)C(C(C)C)=CC1=O` had an EC50 of 54 nM.

As for `CC1=C(CCCCOC(=O)CCC(=O)O[C@@H]2O[C@@H]3O[C@@]4(C)CC[C@H]5[C@H](C)CC[C@@H]([C@H]2C)[C@@]35OO4)C(=O)C(C(C)C)=CC1=O`, the EC50 in the data set on CCRF-CEM amounted to 1400 nM; in the data set on ADR5000 cell line, 800 nM; in the data set with Plasmodium falciparum, 7.7 nM.

With `CC1=C(CCCCOC(=O)CCC(=O)OCC(C[C@H]2O[C@@H]3O[C@@]4(C)CC[C@H]5[C@H](C)CC[C@@H]([C@H]2C)[C@@]35OO4)C[C@H]2O[C@@H]3O[C@@]4(C)CC[C@H]5[C@H](C)CC[C@@H]([C@H]2C)[C@@]35OO4)C(=O)C(C(C)C)=CC1=O` (stereo partly specified), the EC50 in the data set with CCRF-CEM turned out to be 2.7 nM; in the data set with ADR5000 cell line, 7870 nM; with Plasmodium falciparum it was 12.2 nM. In the data set with HFF, this molecule returned an Activity of 50%.

Take `COc1cccc2c1C(=O)c1c(O)c3c(c(O)c1C2=O)C[C@@](O)(C(=O)CO)C[C@@H]3O[C@H]1C[C@H](N)[C@H](O)[C@H](C)O1` [DOXORUBICIN]: the results for the EC50 with CCRF-CEM and in the data set on ADR5000 cell line were 9 nM and 23300 nM, respectively.

Turning to `CC1=C(CCOC(=O)CCC(=O)O[C@@H]2O[C@@H]3O[C@@]4(C)CC[C@H]5[C@H](C)CC[C@@H]([C@H]2C)[C@@]35OO4)C(=O)C(C(C)C)=CC1=O`, the half-maximal effective concentration (EC50) with CCRF-CEM is 1200 nM; with ADR5000 cell line, 1000 nM; with Plasmodium falciparum, 8.2 nM.

As for `CC1=C(CCCCOC2O[C@@H]3O[C@@]4(C)CC[C@H]5[C@H](C)CC[C@@H]([C@H]2C)[C@@]35OO4)C(=O)C(C(C)C)=CC1=O` (stereo partly specified), the EC50 with CCRF-CEM was found to be 300 nM; with ADR5000 cell line, 200 nM; with Plasmodium falciparum, 3.7 nM. Also, the “Ratio EC50” value in the data set with Human betaherpesvirus 5 [1] turned out to be 5; with Human betaherpesvirus 5 [2], 8.
